Test results: PubChem BioAssay AID2060912 (Molecular Pharmacology Branch, DTP, NCI, 2025)

Tested on: HUVEC/MSC spheroids viability
Experiment: Human HUVEC/MSC cell line growth inhibition [KRAS2];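 on viability, T/C: percent of DMSO vehicle control luminescence so 100% = untreated viability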
Details: for IC50: curve of first compound; for viability, T/C: stronger effect = lower value; active means viability on the fitted dose curve at most 10% of control; inactive means the rest
Outline: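 Spheroids of pooled-donor HUVEC and hMSC (passage ≤5) without tumour cells were treated with KRAS-pathway inhibitors alone and combined with targeted agents. Top concentration was at or near clinical Cmax, or 10 microM when Cmax was unknown, descending in half-log steps.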

[1] = second compound 0.0316 µM, first compound 0.0316 µM
[2] = second compound 0.0316 µM, first compound 0.1 µM
[3] = second compound 0.0316 µM, first compound 0.316 µM
[4] = second compound 0.0316 µM, first compound 1 µM
[5] = second compound 0.0316 µM, first compound 3.16 µM
[6] = second compound 0.0316 µM, first compound 10 µM
[7] = second compound 0.1 µM, first compound 0.0316 µM
[8] = second compound 0.1 µM, first compound 0.1 µM
[9] = second compound 0.1 µM, first compound 0.316 µM
[10] = second compound 0.1 µM, first compound 1 µM
[11] = second compound 0.1 µM, first compound 3.16 µM
[12] = second compound 0.1 µM, first compound 10 µM
[13] = second compound 0.316 µM, first compound 0.0316 µM
[14] = second compound 0.316 µM, first compound 0.1 µM
[15] = second compound 0.316 µM, first compound 0.316 µM
[16] = second compound 0.316 µM, first compound 1 µM
[17] = second compound 0.316 µM, first compound 3.16 µM
[18] = second compound 0.316 µM, first compound 10 µM
[19] = second compound 1 µM, first compound 0.0316 µM
[20] = second compound 1 µM, first compound 0.1 µM
[21] = second compound 1 µM, first compound 0.316 µM
[22] = second compound 1 µM, first compound 1 µM
[23] = second compound 1 µM, first compound 3.16 µM
[24] = second compound 1 µM, first compound 10 µM
[25] = second compound 3.16 µM, first compound 0.0316 µM
[26] = second compound 3.16 µM, first compound 0.1 µM
[27] = second compound 3.16 µM, first compound 0.316 µM
[28] = second compound 3.16 µM, first compound 1 µM
[29] = second compound 3.16 µM, first compound 3.16 µM
[30] = second compound 3.16 µM, first compound 10 µM
[31] = second compound 10 µM, first compound 0.0316 µM
[32] = second compound 10 µM, first compound 0.1 µM
[33] = second compound 10 µM, first compound 0.316 µM
[34] = second compound 10 µM, first compound 1 µM
[35] = second compound 10 µM, first compound 3.16 µM
[36] = second compound 10 µM, first compound 10 µM

COc1cc(Nc2ncc3c(n2)-c2ccc(Cl)cc2C(c2c(F)cccc2OC)=NC3)ccc1C(=O)O + CC1OCC2(CCN(c3cnc(Sc4ccnc(N)c4Cl)c(N)n3)CC2)C1N
9.81 µM: IC50 (second compound 1 µM)
> 10 µM: IC50 (second compound 0.0316 µM) | IC50 (second compound 0.1 µM) | IC50 (second compound 0.316 µM)
inactive: viability, T/C [1] 101% | viability, T/C [2] 128% | viability, T/C [3] 105% | viability, T/C [4] 87.7% | viability, T/C [5] 85.2% | viability, T/C [6] 60.1% | viability, T/C [7] 118% | viability, T/C [8] 105% | viability, T/C [9] 97.5% | viability, T/C [10] 87.5% | viability, T/C [11] 103% | viability, T/C [12] 56.9% | viability, T/C [13] 110% | viability, T/C [14] 116% | viability, T/C [15] 106% | viability, T/C [16] 101% | viability, T/C [17] 94.7% | viability, T/C [18] 49.5% | viability, T/C [19] 106% | viability, T/C [20] 101% | viability, T/C [21] 92.9% | viability, T/C [22] 81.7% | viability, T/C [23] 77.2% | viability, T/C [24] 47.4% | viability, T/C [25] 79.5% | viability, T/C [26] 91% | viability, T/C [27] 72.4% | viability, T/C [28] 88.8% | viability, T/C [29] 79.2% | viability, T/C [30] 48.2% | viability, T/C [31] 66.4% | viability, T/C [32] 76% | viability, T/C [33] 76% | viability, T/C [34] 72.6% | viability, T/C [35] 70.8% | viability, T/C [36] 32.8%
9.34 µM: IC50 (second compound 3.16 µM)
5.94 µM: IC50 (second compound 10 µM)

O=C(c1cc(Cc2n[nH]c(=O)c3ccccc23)ccc1F)N1CCN(C(=O)C2CC2)CC1 + C=CC(=O)N1CCN(c2nc(=O)n(-c3c(C)ccnc3C(C)C)c3nc(-c4c(O)cccc4F)c(F)cc23)C(C)C1
> 10 µM: IC50 (second compound 0.0316 µM) | IC50 (second compound 0.1 µM) | IC50 (second compound 0.316 µM) | IC50 (second compound 1 µM) | IC50 (second compound 3.16 µM) | IC50 (second compound 10 µM)
inactive: viability, T/C [1] 104% | viability, T/C [2] 109% | viability, T/C [3] 125% | viability, T/C [4] 85.1% | viability, T/C [5] 95% | viability, T/C [6] 104% | viability, T/C [7] 114% | viability, T/C [8] 107% | viability, T/C [9] 95.3% | viability, T/C [10] 107% | viability, T/C [11] 133% | viability, T/C [12] 99.2% | viability, T/C [13] 112% | viability, T/C [14] 122% | viability, T/C [15] 98.2% | viability, T/C [16] 114% | viability, T/C [17] 115% | viability, T/C [18] 105% | viability, T/C [19] 128% | viability, T/C [20] 104% | viability, T/C [21] 124% | viability, T/C [22] 120% | viability, T/C [23] 126% | viability, T/C [24] 118% | viability, T/C [25] 148% | viability, T/C [26] 118% | viability, T/C [27] 146% | viability, T/C [28] 137% | viability, T/C [29] 116% | viability, T/C [30] 125% | viability, T/C [31] 127% | viability, T/C [32] 140% | viability, T/C [33] 145% | viability, T/C [34] 108% | viability, T/C [35] 126% | viability, T/C [36] 120%

CC1(C)CCC(CN2CCN(c3ccc(C(=O)NS(=O)(=O)c4ccc(NCC5CCOCC5)c([N+](=O)[O-])c4)c(Oc4cnc5[nH]ccc5c4)c3)CC2)=C(c2ccc(Cl)cc2)C1 + CC1OCC2(CCN(c3cnc(Sc4ccnc(N)c4Cl)c(N)n3)CC2)C1N
2.23 µM: IC50 (second compound 10 µM)
inactive: viability, T/C [1] 99.2% | viability, T/C [2] 116% | viability, T/C [3] 109% | viability, T/C [4] 108% | viability, T/C [5] 83.8% | viability, T/C [7] 116% | viability, T/C [8] 110% | viability, T/C [9] 102% | viability, T/C [10] 94.9% | viability, T/C [11] 78.6% | viability, T/C [13] 91.5% | viability, T/C [14] 124% | viability, T/C [15] 122% | viability, T/C [16] 110% | viability, T/C [17] 75.6% | viability, T/C [19] 91% | viability, T/C [20] 95% | viability, T/C [21] 102% | viability, T/C [22] 92.3% | viability, T/C [23] 71.6% | viability, T/C [25] 93.2% | viability, T/C [26] 91.9% | viability, T/C [27] 93% | viability, T/C [28] 66.1% | viability, T/C [29] 61.3% | viability, T/C [31] 76% | viability, T/C [32] 76.2% | viability, T/C [33] 85.1% | viability, T/C [34] 69.8% | viability, T/C [35] 40.9%
3.51 µM: IC50 (second compound 3.16 µM)
4.47 µM: IC50 (second compound 1 µM)
active: viability, T/C [6] 4.11% | viability, T/C [12] 1.56% | viability, T/C [18] 3.8% | viability, T/C [24] 0.34% | viability, T/C [30] 0.92% | viability, T/C [36] 0.29%
5.15 µM: IC50 (second compound 0.0316 µM)
4.77 µM: IC50 (second compound 0.316 µM)
4.69 µM: IC50 (second compound 0.1 µM)

COc1cc2nccc(Oc3ccc(NC(=O)C4(C(=O)Nc5ccc(F)cc5)CC4)cc3)c2cc1OC + COc1cc2nc(C)nc(NC(C)c3cc(N)cc(C(F)(F)F)c3)c2cc1OC1CCOC1
5.33 µM: IC50 (second compound 0.316 µM)
1.87 µM: IC50 (second compound 10 µM)
6.12 µM: IC50 (second compound 0.0316 µM)
inactive: viability, T/C [1] 73.8% | viability, T/C [2] 75.2% | viability, T/C [3] 66.8% | viability, T/C [4] 80.3% | viability, T/C [5] 73.5% | viability, T/C [6] 32.5% | viability, T/C [7] 74.7% | viability, T/C [8] 77% | viability, T/C [9] 68% | viability, T/C [10] 64.8% | viability, T/C [11] 63.4% | viability, T/C [12] 15.9% | viability, T/C [13] 66.1% | viability, T/C [14] 68.5% | viability, T/C [15] 60.8% | viability, T/C [16] 78.2% | viability, T/C [17] 87.7% | viability, T/C [18] 23.3% | viability, T/C [19] 61.6% | viability, T/C [20] 69% | viability, T/C [21] 58.1% | viability, T/C [22] 85.2% | viability, T/C [23] 79.4% | viability, T/C [24] 21.1% | viability, T/C [25] 60.6% | viability, T/C [26] 67.2% | viability, T/C [27] 60.9% | viability, T/C [28] 76.5% | viability, T/C [29] 66.9% | viability, T/C [31] 56.9% | viability, T/C [32] 57.8% | viability, T/C [33] 73.3% | viability, T/C [34] 82.5% | viability, T/C [35] 35.1%
4.19 µM: IC50 (second compound 0.1 µM)
5.1 µM: IC50 (second compound 1 µM)
4.26 µM: IC50 (second compound 3.16 µM)
active: viability, T/C [30] 3.26% | viability, T/C [36] 0.26%
